Source: publication PMC3506176 (Nature chemical biology, 2010)

Legend:
oxytocin receptor [1] = target: T1, oxytocin receptor (Homo sapiens, UniProt P30559); test: Binding affinity of ligands for the oxytocin receptor
T1 sequence (P30559 1-389): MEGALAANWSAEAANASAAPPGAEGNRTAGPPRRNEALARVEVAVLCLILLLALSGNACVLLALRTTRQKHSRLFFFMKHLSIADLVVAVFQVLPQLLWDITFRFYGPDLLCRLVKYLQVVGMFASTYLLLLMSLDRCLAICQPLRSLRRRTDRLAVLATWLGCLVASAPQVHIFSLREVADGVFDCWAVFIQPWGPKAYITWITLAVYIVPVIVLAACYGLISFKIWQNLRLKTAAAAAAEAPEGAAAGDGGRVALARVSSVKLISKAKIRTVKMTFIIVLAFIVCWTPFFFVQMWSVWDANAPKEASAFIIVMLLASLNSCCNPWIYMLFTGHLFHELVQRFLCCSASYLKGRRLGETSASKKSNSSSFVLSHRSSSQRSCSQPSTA

oxytocin receptor [2] = target: T2, oxytocin receptor (Rattus norvegicus, UniProt P70536); type: binding; conditions: mammary gland patches; excess of oxytocin 1 μM
T2 sequence (P70536 1-388): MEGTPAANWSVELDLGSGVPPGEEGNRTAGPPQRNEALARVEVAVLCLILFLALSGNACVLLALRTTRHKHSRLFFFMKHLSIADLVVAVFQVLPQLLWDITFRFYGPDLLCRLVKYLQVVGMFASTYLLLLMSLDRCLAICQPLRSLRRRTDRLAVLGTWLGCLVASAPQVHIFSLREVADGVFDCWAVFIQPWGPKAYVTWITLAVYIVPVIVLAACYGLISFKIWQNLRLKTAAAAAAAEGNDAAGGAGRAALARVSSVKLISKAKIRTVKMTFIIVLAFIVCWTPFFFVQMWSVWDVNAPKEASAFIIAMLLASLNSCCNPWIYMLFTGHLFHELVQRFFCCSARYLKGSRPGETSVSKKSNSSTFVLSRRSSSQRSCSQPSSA

dopamine D2 receptors = dopamine D2 receptors (Homo sapiens, UniProt P14416); type: binding; conditions: read-out: IC50, inhibition of the FRET signal by increasing concentrations of NAPS; Cos7 cells transfected with D2 receptors; NAPS(Lumi4-Tb) (8) 1 nM and NAPS(d1) (9) 5 nM
Sequence of dopamine D2 receptors (P14416 whole entry): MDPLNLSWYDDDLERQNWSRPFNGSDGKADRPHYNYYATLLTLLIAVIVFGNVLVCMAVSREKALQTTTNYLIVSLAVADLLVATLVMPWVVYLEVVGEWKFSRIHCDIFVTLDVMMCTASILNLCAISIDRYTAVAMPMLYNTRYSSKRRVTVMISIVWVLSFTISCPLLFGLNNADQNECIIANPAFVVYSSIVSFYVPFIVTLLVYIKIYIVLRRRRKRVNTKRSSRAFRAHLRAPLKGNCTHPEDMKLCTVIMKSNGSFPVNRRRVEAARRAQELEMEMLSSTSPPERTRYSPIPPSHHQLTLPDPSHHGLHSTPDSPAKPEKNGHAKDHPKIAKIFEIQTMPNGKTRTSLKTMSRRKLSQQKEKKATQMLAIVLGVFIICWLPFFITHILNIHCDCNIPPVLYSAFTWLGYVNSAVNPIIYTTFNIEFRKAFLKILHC

## glucagon-like peptide 1 [GLP1]
Oxytocin receptor [1]
  Affinity for the oxytocin receptor (in words): no affinity
Oxytocin receptor [2]
  Effect on the FRET signal between donor and acceptor antagonists: not affected

## d(CH2)5[DTyr(Et)2,Ile4,Eda(Alexa-647)9]VP [compound 14]
Oxytocin receptor [1]
  Affinity for the oxytocin receptor (in words): poor affinity

## HO-[Thr[4],Orn[8](Alexa-647)]VT [compound 6]
Oxytocin receptor [1]
  Affinity for the oxytocin receptor (in words): high affinities

## Nc1ccc(CCN2CN(c3ccccc3)C3(CCN(CCCC(=O)c4ccc(F)cc4)CC3)C2=O)cc1 [NAPS, N-(p-aminophenethyl)spiperone]
Dopamine D2 receptors
  IC50: 1.9 nM

## HO-[Thr[4],Orn[8](Eu-PBBP)]VT [compound 5]
Oxytocin receptor [1]
  Affinity for the oxytocin receptor (in words): high affinities
